Assay [1] concerns the target T1, Adenosine receptor A1 (Rattus norvegicus) (UniProt P25099).
T1 sequence (whole entry): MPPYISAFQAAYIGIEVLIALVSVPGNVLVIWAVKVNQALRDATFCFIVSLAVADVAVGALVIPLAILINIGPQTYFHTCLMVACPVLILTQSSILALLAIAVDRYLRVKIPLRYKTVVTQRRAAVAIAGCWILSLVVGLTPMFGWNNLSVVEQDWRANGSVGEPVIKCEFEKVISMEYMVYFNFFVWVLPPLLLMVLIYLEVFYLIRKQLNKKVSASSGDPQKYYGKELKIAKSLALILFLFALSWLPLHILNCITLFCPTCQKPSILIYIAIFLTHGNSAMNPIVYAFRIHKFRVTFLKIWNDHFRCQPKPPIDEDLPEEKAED
The experiment in a line: Antagonist activity by displacement of specific [3H]DPCPX binding in rat cortical membrane (Adenosine A1 receptor) at a Conc of […]. In kind it is cell membranes.

The target of assay [2] is Adenosine receptor A2a (Rattus norvegicus) (UniProt P30543). The assay can be described thus: Antagonistic activity assayed by displacement of specific [3H]-CGS-21,680 binding in rat striatal membrane (adenosine A2A receptor) at a conc of […]. The note with it: Striatum. The format is cell membranes.
Adenosine receptor A2a (Rattus norvegicus), sequence (P30543 whole entry): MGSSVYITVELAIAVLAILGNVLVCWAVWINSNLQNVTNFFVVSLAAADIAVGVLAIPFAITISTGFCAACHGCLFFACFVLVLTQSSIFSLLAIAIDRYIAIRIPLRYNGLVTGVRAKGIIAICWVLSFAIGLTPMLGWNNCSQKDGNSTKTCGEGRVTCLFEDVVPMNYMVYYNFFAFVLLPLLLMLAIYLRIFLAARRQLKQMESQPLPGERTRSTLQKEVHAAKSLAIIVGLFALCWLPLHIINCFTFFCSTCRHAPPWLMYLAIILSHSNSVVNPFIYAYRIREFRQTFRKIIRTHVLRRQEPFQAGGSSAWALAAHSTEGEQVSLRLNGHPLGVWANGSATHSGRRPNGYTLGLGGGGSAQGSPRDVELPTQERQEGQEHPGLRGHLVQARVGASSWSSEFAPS
Assay [3] in a line: Relative binding affinity for adenosine receptors A1 and A3 as ratio of Ki.

Turning to `Cc1ccc(C(=O)Nc2nc(-c3ccccn3)cc3ccccc23)c(C)c1`, the Displacement in assay [1] amounted to 14%; in assay [2], 0%.

Turning to `Cc1cccc(C)c1C(=O)Nc1nc(-c2ccccn2)cc2ccccc12`, the results for the Displacement in assay [1] and in assay [2] were 2% and 0%, respectively.

Take `N=CNc1nc(-c2ccccn2)cc2ccccc12`: in assay [2], the Displacement stood at 42%.

Consider `Cc1ccc(C(=O)Nc2nc(-c3ccccn3)cc3ccccc23)cc1`, for which the Displacement in assay [1] worked out at 37%; in assay [2] it was 0%. `Cc1cc(C)cc(C(=O)Nc2nc(-c3ccccn3)cc3ccccc23)c1`: the results for the Displacement in assay [1] and in assay [2] were 8% and 0%, respectively. `N=C(Nc1nc(-c2ccccn2)cc2ccccc12)c1ccccc1` yielded a Displacement in assay [2] of 4%. For `O=C(Nc1nc(-c2ccccn2)cc2ccccc12)c1ccc(Cl)c(Cl)c1`, the Displacement in assay [1] and in assay [2] was 0% each time. `Oc1nc(-c2ccccn2)nc2ccccc12`: the values for the Displacement in assay [1] and in assay [2] were 16% and 10%, respectively. For the compound `O=C(Nc1nc(-c2ccccn2)nc2ccccc12)C(F)(F)F`, the values for the Displacement in assay [1] and in assay [2] were 8% and 0%, respectively. The corresponding values for `Cc1cccc(C(=O)Nc2nc(-c3ccccn3)cc3ccccc23)c1` are 35% and 0%.

Turning to `O=C(Nc1nc(-c2ccccn2)cc2ccccc12)c1ccc(Cl)cc1`, the Displacement in assay [1] was 11%; in assay [2], 0%. As for `O=C(Nc1nc(-c2ccccn2)cc2ccccc12)c1cccc(Cl)c1`, the values for the Displacement in assay [1] and in assay [2] were 42% and 0%, respectively. The corresponding values for `O=C(Nc1nc(-c2ccccn2)nc2ccccc12)c1ccccc1` are 0% and 2%. On the same counts, the results for `Cc1ccc(C)c(C(=O)Nc2nc(-c3ccccn3)cc3ccccc23)c1` are 29% and 7%. In assay [2], `O=C(c1ccccc1)N(C(=O)c1ccccc1)c1nc(-c2ccccn2)cc2ccccc12` registered a Displacement of 27%. Besides, in assay [3], the Ratio came to 19.

On to `Oc1nc(-c2ccccn2)cc2ccccc12`, for which the Displacement in assay [1] amounted to 21%. As for `O=C(c1ccccc1)N(C(=O)c1ccccc1)c1nc(-c2ccccn2)nc2ccccc12`, the Displacement in assay [1] and in assay [2] was 3% each time. In the case of `CC(C)C(=O)Nc1nc(-c2ccccn2)cc2ccccc12`, the Displacement in assay [1] was 38%; in assay [2], 48%. As to `COc1ccc(C(=O)Nc2nc(-c3ccccn3)cc3ccccc23)cc1OC`, the Displacement in assay [1] is 41%; in assay [2], 20%.

As to `CC(=O)Nc1nc(-c2ccccn2)nc2ccccc12`, the results for the Displacement in assay [1] and in assay [2] were 25% and 17%, respectively.

With `COc1ccc(C(=O)Nc2nc(-c3ccccn3)nc3ccccc23)cc1`, the Displacement came out at 41% in assay [1] and 20% in assay [2]. On the same counts, the results for `N=CNc1nc(-c2ccccn2)nc2ccccc12` are 38% and 17%. For `COc1ccc(C(=O)Nc2nc(-c3ccccn3)cc3ccccc23)cc1`, the values for the Displacement in assay [1] and in assay [2] were 14% and 0%, respectively. On the same counts, the results for `COc1cccc(C(=O)Nc2nc(-c3ccccn3)cc3ccccc23)c1` are 22% and 0%.

For the compound `Cc1ccc(C(=O)Nc2nc(-c3ccccn3)cc3ccccc23)cc1C`, the Displacement in assay [1] was 16%; in assay [2], 0%. The corresponding values for `CC(=O)Nc1nc(-c2ccccn2)cc2ccccc12` are 24% and 18%.

Regarding `O=C(Nc1nc(-c2ccccn2)cc2ccccc12)c1ccccc1`, in assay [2], the Displacement was 0%. In addition, the Ratio in assay [3] turned out to be 16.

The compound `O=C(Cc1nc(-c2ccccn2)cc2ccccc12)c1ccccc1` gave a Displacement in assay [2] of 22%. Moreover, the Ratio in assay [3] is 0.36.
